# Test results taken from article PMC9706575 (Journal of Medicinal Chemistry, 2022).
# Columns and labels:
# [1] = mouse, in vivo, iv
# [2] = molecular target: targefrin; test: ITC; reverse titration: 200 μM protein in the syringe, 20 injections of 2.5 μL into 10 μM compound in the cell; 25 mM Tris pH 7.5, 150 mM NaCl, 1% DMSO, 25 °C
# ephrin type-A receptor 2 ligand-binding domain, sequence (P29317 27-200): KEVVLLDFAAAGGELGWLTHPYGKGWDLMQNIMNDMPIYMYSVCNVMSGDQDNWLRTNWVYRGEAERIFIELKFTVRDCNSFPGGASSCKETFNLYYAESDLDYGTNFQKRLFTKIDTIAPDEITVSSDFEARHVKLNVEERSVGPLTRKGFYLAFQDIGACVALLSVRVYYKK
Kd [2] [nM],dH [2] [kcal/mol],Compound,"Body weight (g), Friday [1] [g]","Body weight (g), Thursday [1] [g]","Body weight (g), Wednesday [1] [g]"
–,–,"CC(=O)O[C@H]1C(=O)[C@@]2(C)[C@H]([C@H](OC(=O)c3ccccc3)[C@]3(O)C[C@H](OC(=O)[C@H](O)[C@@H](NC(=O)c4ccccc4)c4ccccc4)C(C)=C1C3(C)C)[C@]1(OC(C)=O)CO[C@@H]1C[C@@H]2O [PTX, paclitaxel]",22.11,21.95,21.85
21.7,-20.2,ephrin type-A receptor 2 ligand-binding domain (from UniProt P29317 27-200) (domain or fragment),–,–,–
